One assay addresses T1, human TLR8 (Homo sapiens, UniProt Q9NR97).
T1 construct: host or cells: human HEK-Blue cells (HEK293-derived) co-expressing TLR8 and an NF-kB/AP1-inducible SEAP reporter
T1 sequence (Q9NR97 27-1041): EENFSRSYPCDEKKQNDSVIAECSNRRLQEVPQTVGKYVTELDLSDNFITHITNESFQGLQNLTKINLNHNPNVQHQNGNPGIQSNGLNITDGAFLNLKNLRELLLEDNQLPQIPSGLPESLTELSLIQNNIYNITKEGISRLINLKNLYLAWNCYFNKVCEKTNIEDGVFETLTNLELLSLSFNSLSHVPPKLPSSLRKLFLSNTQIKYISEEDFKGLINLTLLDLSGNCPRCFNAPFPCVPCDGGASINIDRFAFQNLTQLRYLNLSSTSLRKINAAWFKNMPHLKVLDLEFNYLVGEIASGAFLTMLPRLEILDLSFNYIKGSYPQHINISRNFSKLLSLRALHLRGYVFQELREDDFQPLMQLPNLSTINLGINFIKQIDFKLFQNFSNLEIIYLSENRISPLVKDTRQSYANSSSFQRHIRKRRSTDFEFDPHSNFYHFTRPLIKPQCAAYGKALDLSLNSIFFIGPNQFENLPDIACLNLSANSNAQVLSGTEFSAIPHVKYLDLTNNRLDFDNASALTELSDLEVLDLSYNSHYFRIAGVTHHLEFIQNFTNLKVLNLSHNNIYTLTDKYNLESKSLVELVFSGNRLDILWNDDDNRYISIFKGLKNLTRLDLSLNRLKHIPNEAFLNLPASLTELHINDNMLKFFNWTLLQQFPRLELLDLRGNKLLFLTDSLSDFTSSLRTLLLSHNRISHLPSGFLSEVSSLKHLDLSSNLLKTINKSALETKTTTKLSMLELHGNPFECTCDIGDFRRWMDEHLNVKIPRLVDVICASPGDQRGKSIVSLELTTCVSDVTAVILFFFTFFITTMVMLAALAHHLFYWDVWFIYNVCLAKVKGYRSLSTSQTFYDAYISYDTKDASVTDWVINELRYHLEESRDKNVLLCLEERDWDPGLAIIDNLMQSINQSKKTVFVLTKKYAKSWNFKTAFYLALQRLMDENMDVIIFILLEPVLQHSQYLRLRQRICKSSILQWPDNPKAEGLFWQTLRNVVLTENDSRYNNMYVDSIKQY
Put plainly: In vitro human TLR8 binding reporter assay (HEK-Blue, NF-kB/AP1-inducible SEAP). The class given is cell-based. Particulars: HEK-Blue human TLR8 SEAP reporter cells; activity range classes; read-out: TLR8 Agonist EC50. In outline: (§1)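 Cells are seeded and grown for 24 h. Compounds or DMSO are then added and incubated 18 h at 37 °C. Quanti-Blue is added, and SEAP is read after thirty minutes. EC50 values are normalized, with RLU from 50 μM reference standard setting 100% Ymax.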
Background: Reporter assays use an easily measured gene product as a stand-in for the process of interest.

In the next assay the target is T2, human TLR7 (Homo sapiens, UniProt Q9NYK1).
T2 construct: host or cells: human HEK-Blue cells (HEK293-derived) co-expressing TLR7 and an NF-kB/AP1-inducible SEAP reporter
T2 sequence (Q9NYK1 27-1049): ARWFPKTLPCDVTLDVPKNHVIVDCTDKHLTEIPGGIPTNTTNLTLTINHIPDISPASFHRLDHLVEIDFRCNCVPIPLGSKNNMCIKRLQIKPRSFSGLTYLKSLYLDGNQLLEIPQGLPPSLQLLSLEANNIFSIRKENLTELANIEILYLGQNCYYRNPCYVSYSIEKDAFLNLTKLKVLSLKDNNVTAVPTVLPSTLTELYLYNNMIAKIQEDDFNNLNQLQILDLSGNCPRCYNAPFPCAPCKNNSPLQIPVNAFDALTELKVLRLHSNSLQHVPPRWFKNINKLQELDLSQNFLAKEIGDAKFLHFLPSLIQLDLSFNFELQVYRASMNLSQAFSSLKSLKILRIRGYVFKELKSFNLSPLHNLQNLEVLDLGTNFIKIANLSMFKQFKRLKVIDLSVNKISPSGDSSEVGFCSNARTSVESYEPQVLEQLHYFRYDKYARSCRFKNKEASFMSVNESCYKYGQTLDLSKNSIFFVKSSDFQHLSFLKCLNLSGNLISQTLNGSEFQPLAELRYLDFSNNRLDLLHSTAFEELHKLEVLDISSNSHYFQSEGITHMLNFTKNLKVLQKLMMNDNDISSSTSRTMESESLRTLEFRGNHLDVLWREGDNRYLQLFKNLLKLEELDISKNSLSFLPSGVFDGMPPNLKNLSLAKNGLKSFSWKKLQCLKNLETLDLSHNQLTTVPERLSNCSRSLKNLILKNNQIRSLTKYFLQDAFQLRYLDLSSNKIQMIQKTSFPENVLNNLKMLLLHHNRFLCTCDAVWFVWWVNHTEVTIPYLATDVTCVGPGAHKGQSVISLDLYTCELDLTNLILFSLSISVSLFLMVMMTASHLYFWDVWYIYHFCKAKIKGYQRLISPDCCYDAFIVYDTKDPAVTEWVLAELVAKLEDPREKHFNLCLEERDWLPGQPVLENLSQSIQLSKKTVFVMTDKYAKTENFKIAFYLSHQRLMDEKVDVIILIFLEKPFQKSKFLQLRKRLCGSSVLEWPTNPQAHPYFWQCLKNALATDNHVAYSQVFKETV
Put plainly: In vitro human TLR7 binding reporter assay (HEK-Blue, NF-kB/AP1-inducible SEAP). The format is cell-based. As to conditions: HEK-Blue human TLR7 SEAP reporter cells; activity range classes; read-out: TLR7 Agonist EC50. In outline:
as §1

The test system of assay [1] is IL-1β production in PMA-differentiated THP-1 cells. Description: Measurement of IL-1β production in PMA-differentiated THP-1 cells (ELISA, 4 hours). The format is cell-based, human. Particulars: Homo sapiens, THP-1, human IL-1β production, assayed using one or more of the described procedures, read-out: NLRP3 hIL1B IC50. In outline: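 THP-1 cells differentiated with PMA (10 μg/ml, 24 h), replated at 1×10^6 cells/ml in RPMI with 2% FBS and exposed to compounds (e.g. 0.1–100 μM, 1% DMSO final) for 4 hours. IL-1β in cell-free supernatant quantified by ELISA against vehicle control.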
For orientation: ELISA stands for enzyme-linked immunosorbent assay.

Each structure is given as a SMILES string. pEC50, pIC50: −log10 of the molar value. Where a name gives a salt, the structure may show the parent alone. Where only a bound is given, the exact number is not on record here.

Turning to `CC(=O)NCCCOc1cc(N)nc2cc(-c3ccn[nH]3)ccc12` [Compound 200], the pEC50 at human TLR8 and on human TLR7 was < 4.00 each time. For the same molecule, the pIC50 in assay [1] is 5.72.
In the case of `Nc1cc(OCCn2cccn2)c2ccc(-c3ccn[nH]3)cc2n1` [Compound 201], the pEC50 on human TLR8 and at human TLR7 was < 4.00 each time. The pIC50 in assay [1] was 5.30.
Consider `Nc1cc(OC(CO)CO)c2ccc(-c3ccn[nH]3)cc2n1` [Compound 202, 2-((2-amino-7-(1H-pyrazol-5-yl)quinolin-4-yl)oxy)propane-1,3-diol], for which the pEC50 on human TLR8 and on human TLR7 was < 4.00 throughout. The pIC50 in assay [1] was 5.72.
As for `Cc1nc(C(=O)NCCNc2cc(N)nc3cc(-c4ccn[nH]4)ccc23)cs1` [Compound 203, N-(2-((2-amino-7-(1H-pyrazol-5-yl)quinolin-4-yl)amino)ethyl)-2-methylthiazole-4-carboxamide], the pEC50 on human TLR8 and on human TLR7 was < 4.00 in each case. Moreover, the pIC50 in assay [1] was 6.72.
For `Nc1cc(NCCNC(=O)c2ccccn2)c2ccc(-c3ccn[nH]3)cc2n1` [Compound 204], the pEC50 on human TLR8 and at human TLR7 was < 4.00 in each case. Also, the pIC50 in assay [1] was 6.19.
As for `COC(=O)NCCNc1cc(N)nc2cc(-c3ccn[nH]3)ccc12` [Compound 205, methyl (2-((2-amino-7-(1H-pyrazol-5-yl)quinolin-4-yl)amino)ethyl)carbamate], the pEC50 on human TLR8 and on human TLR7 was < 4.00 in each case. Further, the pIC50 in assay [1] was 5.89.
Consider `CS(=O)(=O)NCCNc1cc(N)nc2cc(-c3ccn[nH]3)ccc12` [Compound 206, N-(2-((2-amino-7-(1H-pyrazol-5-yl)quinolin-4-yl)amino)ethyl)methanesulfonamide], for which the pEC50 at human TLR8 and on human TLR7 was < 4.00 each time. For the same molecule, the pIC50 in assay [1] was 6.08.
Take `CCNC(=O)NCCNc1cc(N)nc2cc(-c3ccn[nH]3)ccc12` [Compound 207, 1-(2-((2-amino-7-(1H-pyrazol-5-yl)quinolin-4-yl)amino)ethyl)-3-ethylurea, TFA]: the pEC50 on human TLR8 and at human TLR7 was < 4.00 throughout. In assay [1], the pIC50 is 5.97.
Turning to `CN(C)C(=O)NCCNc1cc(N)nc2cc(-c3ccn[nH]3)ccc12` [Compound 208, 3-(2-((2-amino-7-(1H-pyrazol-5-yl)quinolin-4-yl)amino)ethyl)-1,1-dimethylurea], the pEC50 on human TLR8 and at human TLR7 was < 4.00 each time. Further, the pIC50 in assay [1] is 5.81.
As to `Cn1ccnc1C(=O)NCCCNc1cc(N)nc2cc(-c3ccn[nH]3)ccc12` [Compound 209, N-(3-((2-amino-7-(1H-pyrazol-5-yl)quinolin-4-yl)amino)propyl)-1-methyl-1H-imidazole-2-carboxamide, 2TFA], the pEC50 on human TLR8 and at human TLR7 was < 4.00 in each case. Also, the pIC50 in assay [1] was 5.71.
For the molecule `Cc1nc(C(=O)NCCCNc2cc(N)nc3cc(-c4ccn[nH]4)ccc23)c(C)s1` [Compound 210], the pEC50 on human TLR8 and on human TLR7 was < 4.00 each time. The pIC50 in assay [1] was 4.68.
For `Nc1cc(NCCCNC(=O)c2ccncc2)c2ccc(-c3ccn[nH]3)cc2n1` [Compound 211], the pEC50 on human TLR8 and on human TLR7 was < 4.00 in each case. Further, in assay [1], the pIC50 is 4.87.
In the case of `Nc1cc(NCCCNC(=O)c2cccnc2)c2ccc(-c3ccn[nH]3)cc2n1` [Compound 212], the pEC50 at human TLR8 and on human TLR7 was < 4.00 each time. The pIC50 in assay [1] was 5.03.
With `CC(=O)NCCCNc1cc(N)nc2cc(-c3ccn[nH]3)ccc12` [Compound 213, N-(3-((2-amino-7-(1H-pyrazol-5-yl)quinolin-4-yl)amino)propyl)acetamide, 2TFA], the pEC50 at human TLR8 and at human TLR7 was < 4.00 each time. The negative logarithm of the IC50 (pIC50) in assay [1] is 5.81.
Turning to `CN(C)C(=O)NCCCNc1cc(N)nc2cc(-c3ccn[nH]3)ccc12` [Compound 214, 3-(3-((2-amino-7-(1H-pyrazol-5-yl)quinolin-4-yl)amino)propyl)-1,1-dimethylurea, 2TFA], the pEC50 at human TLR8 and at human TLR7 was < 4.00 in each case. The pIC50 in assay [1] is 5.34.
In the case of `CS(=O)(=O)NCCCNc1cc(N)nc2cc(-c3ccn[nH]3)ccc12` [Compound 215, N-(3-((2-amino-7-(1H-pyrazol-5-yl)quinolin-4-yl)amino)propyl)methanesulfonamide], the pEC50 at human TLR8 and on human TLR7 was < 4.00 throughout. The negative logarithm of the IC50 (pIC50) in assay [1] was 5.71.
On to `Nc1cc(CCCO)c2ccc(-n3cccn3)cc2n1` [Compound 216, 3-(2-amino-7-(1H-pyrazol-1-yl)quinolin-4-yl)propan-1-ol], for which the pEC50 at human TLR8 and on human TLR7 was < 4.00 throughout. In addition, the negative logarithm of the IC50 (pIC50) in assay [1] was 5.65.
With `CC(=O)NCCc1cc(N)nc2cc(-c3ccn[nH]3)ccc12` [Compound 217, N-(2-(2-amino-7-(1H-pyrazol-5-yl)quinolin-4-yl)ethyl)acetamide], the pEC50 on human TLR8 and at human TLR7 was < 4.00 throughout. Besides, the pIC50 in assay [1] was 4.84.
`Nc1cc(CCCCO)c2ccc(-c3ccn[nH]3)cc2n1` [Compound 218, 4-(2-amino-7-(1H-pyrazol-5-yl)quinolin-4-yl)butan-1-ol]: the pEC50 at human TLR8 and on human TLR7 was < 4.00 each time. Also, the negative logarithm of the IC50 (pIC50) in assay [1] was 5.92.
With `Nc1cc(CCCO)c2ccc(-c3ccsn3)cc2n1` [Compound 219, 3-(2-amino-7-(isothiazol-3-yl)quinolin-4-yl)propan-1-ol], the pEC50 on human TLR8 and at human TLR7 was < 4.00 throughout. In addition, in assay [1], the pIC50 is 5.56.
Take `Nc1cc(OC[C@@H](O)CO)c2ccc(-c3ccn[nH]3)cc2n1` [Compound 220, (S)-3-((2-amino-7-(1H-pyrazol-5-yl)quinolin-4-yl)oxy)propane-1,2-diol]: the pEC50 on human TLR8 and at human TLR7 was < 4.00 in each case. For the same molecule, the pIC50 in assay [1] was 6.24.
For the molecule `Nc1cc(OC[C@H](O)CO)c2ccc(-c3ccn[nH]3)cc2n1` [Compound 221], the pEC50 at human TLR8 and at human TLR7 was < 4.00 throughout. Further, the pIC50 in assay [1] is 6.28.

As usually defined, the pEC50 is the negative decadic logarithm of the EC50, by convention in mol/L. The term pIC50 denotes −log10 of the IC50, conventionally taken in molar units.

The values above are taken from US12171756B2, “NLRP3 modulators” (Innate Tumor Immunity, Inc., priority 2017, dated 2024).
